From publication PMC10482825 (Scientific Reports, 2023)
Values after ≈ are worked out from the molar mass of the structure shown. Where a SMILES comes first, the peptide text is derived from it.

Legend:
[1] = system: the different tested pathogens; assay type: cell-based; conditions: span over tested pathogens, undetected values disregarded
Source text: (§1) The microbial strains used in this study were Bacillus subtilis (ATCC, 11774), Candida albicans (TIMM, 1768), Enterococcus faecalis (ATCC, 33186), Escherichia coli (ATCC, 11775), Klebsiella pneumoniae (ATCC, 13883), Methicillin-resistant Staphylococcus aureus (ATCC, BAA-41), Pseudomonas aeruginosa (ATCC, 10145), Salmonella enterica (ATCC, 14028), Serratia marcescens (ATCC, 13880), Staphylococcus aureus (ATCC, 25923) and Vibrio parahaemolyticus (ATCC, 17802). All microbial strains were cultivated overnight at 37 °C and 200 rpm, then subcultured and incubated for 3 h under the same incubation conditions to obtain the mid-logarithmic growth phase. The cultivated cells were washed twice with 10 mM Tris–HCl containing 5 mM D-glucose at pH 7.4 and suspended in the same buffer to be used in different assays, as previously described.
(§2) As a conclusive quantitative assessment, broth microtiter assay was used to determine the MIC values of each cryptide against B. subtilis, MRSA, S. enterica, P. aeruginosa, V. parahaemolyticus and C. albicans by following the guidelines of the Clinical and Laboratory Standards Institute (CLSI)[67], with slight modifications. Eighty microliters of 5 × 10^4 CFU/ml of each pathogen were dispensed into a 96-well polypropylene microtiter plate. The wells were then treated with 20 µl of serially diluted cryptides for 3 h at 37 °C. Gentamicin was used for positive controls at 0.2 mg/ml while an equivalent volume of acidified water was used for negative controls. The plates were then topped up with a final concentration of 1 × Mueller Hinton Broth (MHB) and incubated for 18 h under the same incubation conditions. MIC was detected as the lowest concentration of each cryptide that prevents the optically detectable microbial growth at OD = 600 nm.

[2] = system: HEK-293; assay: MTT cytotoxicity on normal cells; assay type: cell-based, human; conditions: 25 µM (highest tested concentration), 24 h, serum-free medium
Experimental: (§3) The used mammalian cell lines in our study were colorectal adenocarcinoma (Caco2, ATCC-HTB-37), colorectal carcinoma (HCT 116, ATCC-CCL-247), lung carcinoma (A549, ATCC- CCL-185), cervical cancer cells (HeLa, ATCC-CCL-2), neuroblastoma (SH-SY5Y, ATCC- CRL-2266), rhabdomyosarcoma (RD, ATCC- CCL-136) and human embryonic kidney cells (HEK 293, ATCC- CRL-1573). All the cells were maintained into Dulbecco’s Modified Eagle’s Medium (DMEM) supplemented with 10% heat-inactivated fetal bovine serum, 2 mM L-Glutamine, 100 U/ml penicillin–streptomycin (Pen/Strep) at 37 °C in 5% CO2 humidified incubator.
(§4) First, the cytotoxic effect of 24 h serum deprivation on all the selected cell lines was evaluated by MTT assay, following standard protocols. Briefly, cells were seeded and maintained at 37 °C and 5% CO2 in 24-well plates until they reached 75–80% confluency (zero time). Following washing twice with 1X PBS, cells were incubated in a serum-free medium for 24 h, under the same incubation conditions. The cell viability percentages were calculated and compared to zero time as 100% viability to nullify any possible effects of serum deprivation. Thence, the cell viability percentage of each cell line in response to 24 h treatment with different concentrations of each cryptide in serum-free medium was calculated. […] All the measured cell viability percentages were normalised against the corresponding negative controls.

[3] = system: S. enterica; assay type: cell-based, Salmonella enterica (ATCC, 14028); conditions: micro-broth dilution, 3 h peptide treatment then MHB 18 h, 37 °C, OD 600 nm
Source text: as §1, §2

[4] = system: B. subtilis; assay type: cell-based, Bacillus subtilis (ATCC, 11774); conditions: micro-broth dilution, 3 h peptide treatment then MHB 18 h, 37 °C, OD 600 nm
Source text: as §1, §2

[5] = system: S. enterica; assay type: cell-based, Salmonella enterica (ATCC, 14028); conditions: 20 µl of wells without growth on agar, 18 h, 37 °C
[6] = system: C. albicans; assay type: cell-based, Candida albicans (TIMM, 1768); conditions: 20 µl of wells without growth on Sabouraud 4% Dextrose Agar, 18 h, 37 °C
[7] = system: P. aeruginosa; assay type: cell-based, Pseudomonas aeruginosa (ATCC, 10145); conditions: micro-broth dilution, 3 h peptide treatment then MHB 18 h, 37 °C, OD 600 nm
Source text: as §1, §2

[8] = system: B. subtilis; assay type: cell-based, Bacillus subtilis (ATCC, 11774); conditions: 20 µl of wells without growth on agar, 18 h, 37 °C
[9] = assay type: cell-based; conditions: 24 h, serum-free medium, MTT, 37 °C, 5% CO2; mean ± SD; read-out: IC50 (µM) A459
Experimental: as §3, §4

[10] = system: RD; assay type: cell-based; conditions: 24 h, serum-free medium, MTT, 37 °C, 5% CO2; mean ± SD
Experimental: as §3, §4

[11] = system: SH-SY5Y; assay type: cell-based; conditions: 24 h, serum-free medium, MTT, 37 °C, 5% CO2; mean ± SD
Experimental: as §3, §4

[12] = system: Caco-2; assay type: cell-based, human; conditions: 24 h, serum-free medium, MTT, 37 °C, 5% CO2; mean ± SD
Experimental: as §3, §4

[13] = system: HeLa; assay type: cell-based, human; conditions: 24 h, serum-free medium, MTT, 37 °C, 5% CO2; mean ± SD
Experimental: as §3, §4

[14] = system: S. enterica mature biofilm; assay: Antibiofilm microtiter plate assay (mature biofilm, crystal violet); assay type: cell-based, Salmonella enterica (ATCC, 14028); conditions: tested 12.5-200 µM
Experimental: The antibiofilm activities of the selected cryptides against S. enterica and MRSA mature biofilms were examined by microtiter plate assay as previously described, with slight modification. During the mid-logarithmic phase, S. enterica and MRSA were suspended at the density of 1.7 × 10^8 CFU/ml in MHB. Then 100 µl of each bacterial suspension was dispensed into a vinyl 96 U-shaped-well plate and incubated overnight at 37 °C. The mature biofilms were washed with 10 mM Tris–HCl containing 5 mM D-glucose at pH 7.4 and treated for 8 h with 100 µl of two-fold serially diluted cryptides, under the same incubation conditions. A sterile MHB medium was used as the positive control while an equivalent volume of acidified water was used to treat the negative controls. The treated biofilms were washed twice with the same washing buffer and stained with 0.1% crystal violet for 15 min followed by rinsing with sterile distilled water twice and then dried for 30 min at 37 °C. The stain was dissolved with 33% acetic acid and transferred to an optically clear 96-well flat bottom plate which was then measured at 600 nm.
Table S.4 Antibiofilm activities of the selected Cryptides against S. enterica and MRSA. Microbial cells were suspended at 1.7 X 10^8 CFU/ml density, during the mid-logarithmic phase in MHB. Then, 96 U-shaped -well plates were inoculated with 100 µl of microbial suspension and incubated for 48 h at 37 °C. The formed biofilms were washed with 10 mM Tris-HCl and treated with 100 µl of different concentrations of each peptide for 24 h. The treated biomasses were washed and fixed with methanol for 15 min at -20 °C before staining with 0.1 % crystal violet. The stained biofilms were dissolved in 100 µl of 33 % acetic acid and the quantities of crystal violet stains were determined by measuring absorbance at 600 nm as an indicator of the remaining biomass after treatment. Untreated cells were used as negative control [indicating 100 % biofilm integrity] while the sterile medium was used as a positive control [indicating 0 % biofilm integrity].
S. enterica MRSA S. enterica MRSA S. enterica MRSA S. enterica MRSA S. enterica MRSA

[15] = system: C. albicans; assay type: cell-based, Candida albicans (TIMM, 1768); conditions: micro-broth dilution, 3 h peptide treatment then MHB 18 h, 37 °C, OD 600 nm
Source text: as §1, §2

[16] = system: MRSA; assay type: cell-based, Methicillin-resistant Staphylococcus aureus (ATCC, BAA-41); conditions: 20 µl of wells without growth on agar, 18 h, 37 °C
[17] = system: P. aeruginosa; assay type: cell-based, Pseudomonas aeruginosa (ATCC, 10145); conditions: 20 µl of wells without growth on agar, 18 h, 37 °C
[18] = system: MRSA; assay type: cell-based, Methicillin-resistant Staphylococcus aureus (ATCC, BAA-41); conditions: micro-broth dilution, 3 h peptide treatment then MHB 18 h, 37 °C, OD 600 nm
Source text: as §1, §2

[19] = system: human RBCs; assay: Hemolytic assay; assay type: cell-based; conditions: 2% RBCs in PBS, 2 h, 37 °C, supernatant at 450 nm, 0.1% TritonX-100 = maximum; highest tested concentration 100 µM
Experimental: All methods were carried out in accordance with the Declaration of Helsinki, and the Research Ethics Committee approved all experimental protocols at Sunway University (approval no. PGSUREC2020/005). A human blood sample was collected from a healthy person for this assay upon obtaining informed consent. The fresh blood sample was centrifuged at 3700 g for 5 min at RT. The supernatant (serum) was removed and red blood cells (RBCs) were washed three times with 1X PBS and diluted to a final concentration of 2% (PBS—137 mM NaCl, 2.7 mM KCl, 10 mM Na2HPO4, 1.76 mM KH2PO4). Cells were stored at 4 °C, and used within 5 h.
The hemolytic activities of the identified cryptides were evaluated as previously described. The prepared RBCs were treated with different peptide concentrations for 2 h at 37 °C. The treated RBCs were centrifuged, under the same centrifugation conditions, and the supernatants were transferred to a 96-well plate and measured at 450 nm.

[20] = system: HCT 116; assay type: cell-based, human; conditions: 24 h, serum-free medium, MTT, 37 °C, 5% CO2; mean ± SD
Experimental: as §3, §4

Structure (SMILES) | Cell death of HEK-293 [2] | MIC (µM) S. enterica [3] [µM] | MIC (µM) B. subtilis [4] [µM] | MBC (µM) S. enterica [5] [µM] | MFC (µM) C. albicans [6] [µM] | MIC (µM) P. aeruginosa [7] [µM] | MBC (µM) B. subtilis [8] [µM] | IC50 [9] [µM] | IC50 [10] [µM] | IC50 [11] [µM] | IC50 [12] [µM] | IC50 [13] [µM] | Minimal biofilm eradication concentration (MBEC) S. enterica [14] [µM] | MIC (µM) C. albicans [15] [µM] | MBC (µM) MRSA [16] [µM] | MBC (µM) P. aeruginosa [17] [µM] | MIC (µM) MRSA [18] [µM] | also measured
CC(C)[C@H](NC(=O)[C@H](CO)NC(=O)[C@H](Cc1ccccc1)NC(=O)[C@H](CC(N)=O)NC(=O)[C@H](CS)NC(=O)[C@H](Cc1ccc(O)cc1)NC(=O)[C@H](Cc1c[nH]cn1)NC(=O)CN)C(=O)N[C@H](C(=O)N1CCC[C@H]1C(=O)N[C@@H](CCCCN)C(=O)N[C@@H](Cc1ccccc1)C(=O)N[C@@H](CCCCN)C(=O)N[C@@H](CCCNC(=N)N)C(=O)N[C@@H](Cc1c[nH]c2ccccc12)C(=O)O)[C@@H](C)O [AD8] (H-GHYCNFSVTPKFKRW-OH) | less than 10% | 0.78 (≈ 1.46 µg/mL) | 0.78 (≈ 1.46 µg/mL) | 0.78 (≈ 1.46 µg/mL) | 6.25 (≈ 11.7 µg/mL) | 25 (≈ 46.8 µg/mL) | 0.78 (≈ 1.46 µg/mL) | 7.3 ± 0.5 | 27.2 ± 0.4 | 23.3 ± 0.7 | 4.4 ± 0.5 | 42.6 ± 0.3 | 200 | 6.25 (≈ 11.7 µg/mL) | 12.5 (≈ 23.4 µg/mL) | 50 (≈ 93.5 µg/mL) | 3.12 (≈ 5.83 µg/mL) | MBC values, range against the different tested pathogens [1]: 0.78 ~ 50 µM; MIC values, range against the different tested pathogens [1]: 0.78 ~ 25 µM
CC(C)C[C@H](NC(=O)[C@H](C)NC(=O)[C@H](Cc1ccccc1)NC(=O)[C@@H](N)Cc1ccccc1)C(=O)N[C@@H](CCC(N)=O)C(=O)N[C@@H](CS)C(=O)N[C@@H](C)C(=O)N[C@@H](C)C(=O)N[C@@H](CCCCN)C(=O)N[C@H](C(=O)N[C@@H](CCCNC(=N)N)C(=O)N[C@H](C(=O)N[C@@H](CCCNC(=N)N)C(=O)N[C@@H](CCCNC(=N)N)C(=O)N[C@H](C(=O)O)C(C)C)[C@@H](C)O)[C@@H](C)O [AD12] (H-FFALQCAAKTRTRRV-OH) | less than 10% | 0.78 (≈ 1.38 µg/mL) | 0.78 (≈ 1.38 µg/mL) | 0.78 (≈ 1.38 µg/mL) | 12.5 (≈ 22.1 µg/mL) | 12.5 (≈ 22.1 µg/mL) | 0.78 (≈ 1.38 µg/mL) | 9.4 ± 1 | 159 |  | 4.35 | 8.5 ± 0.5 | 200 | 12.5 (≈ 22.1 µg/mL) | 25 (≈ 44.2 µg/mL) | 25 (≈ 44.2 µg/mL) | 6.25 (≈ 11.1 µg/mL) | 
N.N.[Cl][Pt][Cl] [Cisplatin, reference compound] |  |  |  |  |  |  |  | 15.3 ± 0.6 | 74 ± 1.2 | 54.4 ± 0.8 |  | 63.6 ± 0.4 |  |  |  |  |  | Hemolysis of human RBCs at 100 µM [19]: less than 10%; IC50 (µM) HCT 116 [20]: resistant
